The assay concerns HL-60 (ATCC CL-240). Nature of the assay: Apoptosis inducing activity: microscope observation and living cell count of HL-60 culture. Format: cell-based. The following applies: HL-60 cells; for activity of suppressing the growth of cancer cells: method of Example 1-(4). As to the method:
Apoptosis inducing activity of the above fraction B and the pure product mentioned in Example 1-(3) was measured as follows. Thus, 0.5 ml of aqueous solution of the fraction B or of said pure product was added to 2.5×10^5 cells/4.5 ml of HL-60 (ATCC CL-240) cultured in an RPMI 1640 medium containing 10% of fetal calf serum and incubated at 37° C. for 48 hours. At the same time, distilled water and an Actinomycin D solution (10 μg/ml) which was known to have an apoptosis inducing activity were added to prepare control samples. Formation of apoptic bodies, contraction of cells and aggregation of nuclei were observed by naked eye under a microscope whereby the living cell numbers were counted. When such phenomena were observed and a reduction in living cell numbers was recognized, it was decided that an apoptosis inducing activity was positive.
Each of the concentrated extracts of Lyophyllum ulmarium was diluted with a 75% or 50% aqueous solution of ethanol. The diluted solution was assayed by an MTT method mentioned in Example 7. […] Thus, it was confirmed that, under the conditions of extracting with a 75% aqueous solution of ethanol and a 50% aqueous solution of ethanol, substances which are active for suppressing the growth of cancer cells were extracted. Further, an apoptosis inducing activity was measured using those concentrated extracts of Lyophyllum ulmarium. Thus, 25 μl of each of the above-mentioned concentrated extracts was used as a sample, ethanol was evaporated therefrom, the residue was added to 2.5×10^5 HL-60 cells/4.5 ml which were incubated in an RPMI 1640 medium containing 10% of fetal calf serum and incubation was conducted at 37° C. for 48 hours. At the same time, control samples were prepared by adding distilled water and an Actinomycin D solution (10 μg/ml) which was known to have an apoptosis inducing activity. Formation of apoptic bodies, contraction of cells and aggregation of nuclei were observed by naked eye under an optical microscope and the numbers of living cells were counted. When such a phenomenon was observed and a reduction in living cell numbers was noted, the sample was judged to have an apoptosis inducing activity.

The mark [1] stands for this setting: 37° C., 48 hours, apoptic bodies, contraction of cells, aggregation of nuclei and reduction in living cell numbers.

*1 amine or outer side, *2 acyl side, *3 side chain or, on linkers, in order; H or OH if unused. Where a SMILES comes first, the peptide text is derived from it. Bridges are numbered along the chain shown (N, C = ends). Roman numbers before positions name the chains, in order. [ ]: non-standard residue; d: D form. Actinocin(9to1) = Cc1c2oc3c(C)ccc(C(=O)[*:1])c3nc-2c(C(=O)[*:2])c(N)c1=O; NMeV = CN[C@H](C(=O)O)C(C)C; Sar = CNCC(=O)O

For Monogalactosyl diglyceride, the “activity of suppressing the growth of cancer cells” value (“activity … of cancer cells” for short) (37° C., 48 hours) was “confirmed”. The apoptosis inducing activity result under setting [1] was “strong apoptosis inducing action”. Turning to digalactosyl diglyceride, the “activity … of cancer cells” value (37° C., 48 hours) is “confirmed”. Besides, the apoptosis inducing activity result under setting [1] is on record as “strong apoptosis inducing action”. On to monogalactosyl diglyceride, for which, under “37° C., 48 hours”, the “activity … of cancer cells” value is on record as “confirmed”. Under setting [1], the apoptosis inducing activity result is recorded as “strong apoptosis inducing action”.

Regarding `Cc1c2oc3c(C)ccc(C(=O)N[C@@H]4C(=O)N[C@H](C(C)C)C(=O)N5CCC[C@H]5C(=O)N(C)CC(=O)N(C)[C@@H](C(C)C)C(=O)O[C@@H]4C)c3nc-2c(C(=O)N[C@@H]2C(=O)N[C@H](C(C)C)C(=O)N3CCC[C@H]3C(=O)N(C)CC(=O)N(C)[C@@H](C(C)C)C(=O)O[C@@H]2C)c(N)c1=O` [Actinomycin D, reference compound] (I: T[dV]P[Sar][NMeV] / II: T[dV]P[Sar][NMeV]; ester I:1-I:C, II:1-II:C; linker I:N-II:N via Actinocin(9to1)), the apoptosis inducing activity result (Actinomycin D solution (10 μg/ml) added as control sample) is “apoptosis inducing activity was confirmed”.

For the origin of these results see patent US20020016299A1, “APOPTOSIS INDUCERS” (priority 1996, published 2002).
